Assays:
Assay type in all cases: cell-based
[1] = system: Human foreskin keratinocytes; experiment: Cornified envelope production in keratinocytes (silver-stained dot blot); details: for Cornified Envelope % Control / Cornified Envelope Mean: 4 days of treatment
Description: (§1) Human foreskin keratinocytes at passage 3 (P3) were seeded into 96 well plates at 4000 cells/well in Dubleccos Modified Eagles Medium (DMEM), 0.03 mM calcium. The cells were grown for 3 days prior to treatment. The treatment vehicle was DMSO. After 4 days of treatment, the cells were harvested and washed three times with 100 μl phosphate buffered saline (PBS). The cells were then extracted in 1% Triton X100, 50 mM Tris pH 8.0, 0.02 mM Leupeptin, 0.02 mM Pepstatin. 60 il/well of extract was then assayed for DNA concentration (ng/well), Pico Green DNA assay, Molecular Probes.
The cells were then washed in 200 μl PBS, and then 100 μl of 2% SDS, 20 mM DTT was added to each well. The plates were then sealed with a Titertek plate sealer (ICN) and incubated at 60° C. over night in an air tight damp environment (i.e. a sealed sandwich box lined with damp paper). The extract was then filtered through a PVDF transfer membrane (Bio-rad) under gravity using Dot-Blot apparatus (Bio-rad). The membrane is then washed in distilled water prior to silver staining (Bio-rad Silver Stain kit). The stained dot blot membrane is then analysed using Phoretix array software (Phoretix International).

[2] = system: Human foreskin keratinocytes; experiment: DNA concentration of keratinocyte extract (Pico Green DNA assay); details: 4 days of treatment
Description: as §1

[3] = system: procollagen-I synthesis in human dermal fibroblasts; experiment: Dot blot assay for procollagen-I protein in dermal fibroblast conditioned medium; details: for Procollagen Level: 24 hours, relative to vehicle treated control value of 100
Description: (§2) Primary human foreskin fibroblasts at passage 2 (P2) were seeded into 12-well plates at 10000 cells/cm^2 and maintained for 24 hours in an atmosphere of 5% carbon dioxide and 4% oxygen in Dulbeccos Modified Eagles Medium (DMEM) supplemented with 10% foetal calf serum. After this time the cells were washed with serum free DMEM and then incubated in fresh serum free DMEM for a further 60 hours. The fibroblast monolayers were then washed again with serum free DMEM. Test reagents and vehicle controls were added to the cells in triplicate in a final volume of 0.4 ml/well fresh serum free DMEM and incubated for a further 24 hours. This fibroblast conditioned medium was either analysed immediately or snap frozen in liquid nitrogen and stored at −70° C. for future analysis. The cells were then counted and data from the dot-blot analysis subsequently standardised to cell number.
(§3) Samples of conditioned medium from dermal fibroblasts treated with vehicle (as a control) or test reagents were supplemented with 20 mM dithiothreitol (1:10 dilution of 200 mM stock solution) and 0.1% sodium dodecylsulphate (1:100 dilution of 10% stock solution), mixed well and then incubated at 75° C. for 2 minutes. A standard for the assay was generated by serial dilution of neat fibroblast conditioned medium from fibroblasts seeded at 10000 cells/cm^2 in a 175 cm^2 flask and maintained in serum free DMEM as described above. […]
(§4) Following this the Immobilon strips were again washed with TBS/Tween 20 (3×5 minutes) before being allowed to dry in air at room temperature. […] Dot intensity was assessed by computer-assisted image analysis using the quantification tools in ImageQuant™, standardised to cell number and the effects of various test reagents on decorin and procollagen-I synthesis were determined relative to a vehicle treated control value of 100 arbitrary units.
(§5) In order to normalise the results the effects of the test substance was determined relative to a vehicle treated control value of 100 arbitrary units.

[4] = system: decorin synthesis in human dermal fibroblasts; experiment: Dot blot assay for decorin protein in dermal fibroblast conditioned medium; details: for Decorin Level: 24 hours, relative to vehicle treated control value of 100
Description: as §2, §3, §4, §5

[5] = human dermal fibroblasts, statement in words

CC/C=C\C/C=C\C/C=C\CCCCCC(=O)O [Hexadecatrienoic acid, hexadecatrienoic acid (C16:3(c7, c10, c13))]
Cornified Envelope % Control ([1]; 0.1 μM): 98 % Control | Cornified Envelope Mean ([1]; 0.1 μM): 17617 | Cornified Envelope % Control ([1]; 0.5 μM): 133 % Control | Cornified Envelope Mean ([1]; 0.5 μM): 24009 | Cornified Envelope % Control ([1]; 1 μM): 200 % Control | Cornified Envelope Mean ([1]; 1 μM): 36017 | Cornified Envelope % Control ([1]; 10 μM): 227 % Control | Cornified Envelope Mean ([1]; 10 μM): 40997 | cornified envelope production ([1]; 1-10 μM application, statement in words): increased | DNA Results % Control ([2]; 0.1 μM): 59 % Control | DNA Results Mean ([2]; 0.1 μM): 0.98 ng/well | DNA Results % Control ([2]; 0.5 μM): 89 % Control | DNA Results Mean ([2]; 0.5 μM): 1.48 ng/well | DNA Results % Control ([2]; 1 μM): 76 % Control | DNA Results Mean ([2]; 1 μM): 1.27 ng/well | DNA Results % Control ([2]; 10 μM): 68 % Control | DNA Results Mean ([2]; 10 μM): 1.13 ng/well | Procollagen Level ([3]; 1 μM): 91.0 arbitrary units | Procollagen Level ([3]; 10 μM): 184.2 arbitrary units | synthesis of procollagen-I as compared to the control [3, 5]: significantly upregulates | Decorin Level ([4]; 1 μM): 108.7 arbitrary units | Decorin Level ([4]; 10 μM): 115.4 arbitrary units | synthesis of decorin as compared to the control [4, 5]: significantly upregulates

From patent US20030039672A1, “Cosmetic composition and method of treating skin” (Unilever Home & Personal Care USA, Division of Conopco, Inc., priority 2001, published 2003)
